Earlier results on one substance are cited in patent US20110171184A1, “Method for Introducing a Pna Molecule Conjugated to a Positively Charged Peptide into the Cytosol and/or the Nucleus by Photochemical Internalisation (Pci)” (PCI Biotech AS, priority 2004, published 2011).

The series has as its system cells. The settings on record: 10 μM, after 24 hours, no PCI.

Ends that are not written are not given here.

Turning to “scrambled NLS sequence (SEQ ID NO:4 KKVKPKR) conjugated to PNA: PNA conjugated to scrambled NLS sequence KKVKPKR (Cutrona et al.) (also: conjugated to PNA)”, the “presence of PNA in the nucleus” value was “only minimal amounts of PNA in the nucleus”.
